Where a SMILES comes first, the peptide text is derived from it. Primed or numbered codes have the meaning given here. The star is where a group is joined. PEG12′ = C-terminal PEG12 polyethylene glycol (PEGylation) moiety, followed by a C-terminal amide; 5FAM = O=C1OC2(c3ccc(O)cc3Oc3cc(O)ccc32)c2ccc(C(=O)*)cc21
Experiments:
[1] = tested on: human microvessels; assay: Uptake of 5-FAM labeled peptide by isolated human microvessels (microscopy); conditions: 10 uM, 8 h
Description: (§1) FIGS. 2A-2B. (A) Dissected human microvessels are shown. The top panels are brightfield images, while the bottom three panels are images of the same vessels under laser excitation with a filter to visualize emission from 5-FAM. Vessels were treated with 5-FAM labeled peptide (nucXTERT-W) at a 10 uM concentration for 8 hours (h), or left untreated (control). (B) H1299 non-small cell lung carcinoma cells were seeded onto slides and treated with 0, 50, or 100 μM 5-FAM labeled nucXTERT-W for 8 h. DAPI=blue; 5-FAM labeled peptide=green.
Peptide synthesis was conducted by GeneMed Synthesis (San Antonio, Tex.). All peptide sequences were verified by mass spectrometry, and were only used at a purity of greater than 95%. Lyophilized peptides were stored at −20 degrees Celsius. Given the charge properties of the peptides used in these studies, phosphate buffered saline (PBS) was selected as the solvent of choice to dissolve all peptides used. […]
One of the first hurdles that required consideration when evaluating the ability of novel peptides to alter telomerase localization is their ability to be internalized by living tissues. nucXTERT was labeled with 5-carboxyfluorescein (5-FAM). Isolated human microvessels incubated with the 5-FAM labeled peptide were analyzed by microscopy. […]

[2] = tested on: H1299 non-small cell lung carcinoma cells; assay: Uptake of 5-FAM labeled peptide by H1299 cells (microscopy); format: cell-based, human; conditions: 50 or 100 μM, 8 h
Description: as §1
The NCI-H1299 cell line was used for the cell culture experiments described in this manuscript. Cells were cultured in RPMI (Invitrogen) supplemented with 10% fetal bovine serum (Sigma).
One of the first hurdles that required consideration when evaluating the ability of novel peptides to alter telomerase localization is their ability to be internalized by living tissues. nucXTERT was labeled with 5-carboxyfluorescein (5-FAM). Isolated human microvessels incubated with the 5-FAM labeled peptide were analyzed by microscopy. Robust signal is present in vessels pulsed with the peptide, while vessels not treated with peptide have no signal. […] Since peptide is taken up by vessels, it was possible to study the effect of peptide treatment on vessel physiology, using human microvessels as described in the methods. […]

[3] = tested on: human microvessels; assay: Flow-mediated dilation (FMD) of isolated human microvessels with or without ANG II challenge; conditions: for protection of flow-mediated vasodilation from ANG II: overnight pre-treatment, ANG II 10 nM 30 min; for baseline vessel constriction, % of maximum diameter: after 10 minutes of ET-1 treatment
Description: (§2) Microvessels were dissected from surgical discard tissues, predominantly consisting of adipose. Only vessels with a diameter of less than 300 micrometers were selected for further study. All microvessels were obtained from discarded surgical tissues, in accordance with an Institutional Review Board approved protocols (PRO00000114, PRO00010828, PRO00001094) at the Medical College of Wisconsin, Milwaukee, Wis.
(§3) After dissection, vessels were incubated overnight in complete endothelial cell media, supplemented with 5% fetal bovine serum (Lonza) with or without peptides as described. Following overnight incubation, peptides were washed out and vessels were cannulated and transferred to physiological salt solution. A video microscopy setup enabled monitoring of vessels in real time. Vessels were pre-constricted with endothelin-1 (ET-1) at a dose range of 0.1-1 nM. Only vessels capable of constricting at least 20% from baseline were included in the study. Flow-mediated dilation (FMD) and Ach-induced dilation were then evaluated, followed by evaluation of endothelium-independent dilation to papaverin. After establishing this baseline, vessels were pre-constricted again with ET-1 and dilator curves repeated in the presence of Angiotensin II (ANG II), as described below.
FMD was evaluated by adjusting the heights of two reservoirs in equal and opposite directions to generate flow by altering vessel central pressure. After each change in pressure gradient, vessel diameter was measured and assessed using video microscopy. Prior to measuring FMD, all vessels studied were pre-constricted using endothelin-1.
(§4) Baseline vessel parameters, including ability to dilate in response to FMD, as described above were assessed. Following assessment, vessels were treated with ANG II at a final concentration of 10 nM for 30 minutes before FMD and response to ACh was re-assessed.

[4] = tested on: human microvessels; assay: ACh-induced dilation of isolated human microvessels with or without ANG II challenge; conditions: for protection of ACh-induced vasodilation from ANG II: overnight pre-treatment, ANG II 10 nM 30 min
Description: as §2, §3, §4

[5] = tested on: human microvessels of healthy donors; assay: Mechanism of FMD (L-NAME / PEG-Catalase) in microvessels from healthy (non-CAD) donors
Description: (§5) Live human microvessels were dissected from adipose from individuals with clinically confirmed coronary artery disease (CAD). Vessels were treated with nucXTERT in the presence of either vehicle or L-NAME or PEG-Catalase. Response to pressure gradient (flow) stimulus was evaluated. Microvessels from the adipose of healthy human donors was treated with either vehicle or mitoXTERT with or without NG-nitro-L-arginine methyl ester (L-NAME) or PEG-Catalase. The ability of the vessels to dilate in response to a pressure gradient (flow) was assessed.
FIGS. 7A-7C show dose titration of PEGylated nucXTERT-E in isolated vessel studies. nucXTERT with S→E substitution was PEGylated at the C-terminus to increase bio stability and cell permeability. Effective doses from 10 μM to 1 nM were tested. PEGylated peptide could be titrated down to 1 nM with vascular protective effects. […] N=3-4.
(§6) Dependence of vessels on NO versus hydrogen peroxide signaling in dilation was assessed using the pharmacologic agents Nw-nitro-L-arginine methyl ester (L-NAME; 100 μmol/L) and polyethylene glycol-catalase (PEG-catalase; 500 U/mL), respectively, where described.

[6] = tested on: human microvessels from individuals with coronary artery disease (CAD); assay: Mechanism of FMD (L-NAME / PEG-Catalase) in microvessels from donors with coronary artery disease; conditions: vessels pretreated with peptide
Description: as §5, §6
At baseline, these vessels respond to vasodilatory stimuli through the use of H2O2 as a signaling mechanism to enable dilation. Treatment of vessels with PEG-Catalase, a scavenger of H2O2 effectively attenuates vasodilation. […] In vessels from subjects with CAD, H2O2 represents the dominant vasodilator.

[7] = tested on: ANG II induced endothelial dysfunction; assay: In vivo ANG II infusion model of hypertension and endothelial dysfunction; design: species or system mice
Description: Mice were treated with commonly used stressors to induce hypertension and endothelial dysfunction. The fast pressor dose of ANG II (1000 ng/kg/min) was infused via osmotic mini-pump for 14 days. A subgroup of animals was co-treated with nucXTERT (30 μg/day via osmotic mini-pump) in addition to ANG II, for the same duration and using the same delivery system. Curves were compared to historic controls (vehicle). […] Smooth muscle-dependent dilation in response to vasodilator papaverin was not effected (data not shown). * P<0.05 vs. Vehicle one way ANOVA RM, N=5).
To test in vivo effects of nucXTERT mice were treated with commonly used stress to induce hypertension and endothelial dysfunction. The fast pressor dose of ANG II (1000 ng/kg/min) was infused via osmotic minipump for 14 days. A subgroup of animals was co-treated with nucXTERT (30 μg/day via osmotic mini pump) in addition to ANG II, for the same duration and using the same delivery system. Curves were compared to historic controls (vehicle). […] Smooth muscle dependent dilation to papaverin was not effected (data not shown).

[8] = 30 μg/day via osmotic mini pump, 14 days, ANG II 1000 ng/kg/min

CC(C)C[C@H](NC(=O)[C@H](CO)NC(=O)[C@H](CCCNC(=N)N)NC(=O)[C@H](CO)NC(=O)[C@H](C)NC(=O)[C@H](CO)NC(=O)CNC(=O)CNC(=O)[C@H](CCCNC(=N)N)NC(=O)[C@H](CCCNC(=N)N)NC(=O)[C@H](CCCNC(=N)N)NC(=O)c1ccc2c(c1)C(=O)OC21c2ccc(O)cc2Oc2cc(O)ccc21)C(=O)N1CCC[C@H]1C(=O)N[C@@H](CC(C)C)C(=O)N1CCC[C@H]1C(=O)N[C@@H](CCCCN)C(=O)N[C@@H](CCCNC(=N)N)C(=O)N1CCC[C@H]1C(=O)N[C@@H](CCCNC(=N)N)C(=O)N[C@@H](CCCNC(=N)N)C(=O)O [5-FAM labeled peptide] (5FAM-RRRGGSASRSLPLPKRPRR-OH; N-terminus and C-terminus assumed)
5-FAM signal in vessels pulsed with peptide (uptake by living tissue) [1]: Robust signal
uptake of labeled peptide into cells [2]: effectively traffics into the cell

C/C(=C\C(=O)Nc1ccccc1C(=O)O)c1ccc2ccccc2c1 [BIBR1532, reference compound]
vasodilation in response to flow stimulus ([3]; overnight treatment, no ANG II): continue to dilate in response to flow stimulus
vasodilation in response to acetylcholine ([4]; overnight treatment, no ANG II): effectively eliminates vasodilation in response to acetylcholine

Ac-CGGRRRGGEASRSLPLPKRPRR-peg12-amide (Ac-CGGRRRGGEASRSLPLPKRPRR-{PEG12′-NH2}) [PEGylated peptide, nucXTERT with S→E substitution PEGylated at the C-terminus]
lowest dose with vascular protective effects (dose titration) ([3]; doses from 10 μM to 1 nM tested): 1 nM
protection of flow-mediated vasodilation from ANG II [3]: protected against ANG II induced endothelial dysfunction
mechanism of FMD in non-CAD vessels (L-NAME inhibitable) ([5]; non-CAD vessels): did not alter

MPRAPRCRAVRSLLRSHYRE (listed as Homo sapiens) [mitoXTERT, decoy peptide containing regions of the telomerase MLS]
protection of flow-mediated vasodilation from ANG II [3]: no protection of the endothelium from ANG II stress
protection of ACh-induced vasodilation from ANG II [4]: no protection of the endothelium from ANG II stress
mechanism of dilation in healthy vessels ([5]; treated with peptide, with or without L-NAME or PEG-Catalase): from NO-mediated dilation to H2O2-dependent dilation

RRRGGAASRSLPLPKRPRR (phospho-deficient nucXTERT-A)
baseline vessel constriction, % of maximum diameter [3]: 53±12%
protection of flow-mediated vasodilation from ANG II [3]: does not protect vessels from attenuation of vasodilator capacity
protection of ACh-induced vasodilation from ANG II [4]: does not protect vessels from attenuation of vasodilator capacity

RRRGGEASRSLPLPKRPRR (phosphomimetic nucXTERT-E) [phosphomimetic containing a glutamic acid substitution at position 227]
baseline vessel constriction, % of maximum diameter [3]: 48±18%
protection of flow-mediated vasodilation from ANG II [3]: prevents ANG II-induced endothelial dysfunction
protection of ACh-induced vasodilation from ANG II [4]: prevents ANG II-induced endothelial dysfunction

RRRGGSASRSLPLPKRPRR (listed as Homo sapiens) [nucXTERT]
protection of flow-mediated vasodilation from ANG II [3]: not impacted by ANG II treatment
protection of ACh-induced vasodilation from ANG II [4]: not impacted by ANG II treatment
effect of PEG-Catalase on dilation responses in CAD vessels [6]: no longer inhibits dilation responses
main mechanism of FMD in CAD vessels [6]: NO is restored as the main mechanism of FMD
FMD under ANG II [7, 8]: prevented onset of ANG II induced endothelial dysfunction
agonist (ACh) induced endothelium-dependent dilation under ANG II [7, 8]: prevented onset of ANG II induced endothelial dysfunction
smooth muscle dependent dilation to papaverin ([7]; data not shown): not effected
